# Starred links: 1 amine or outer side, 2 acyl side, 3 side chain; linkers in the order of their positions; H or OH if unused. Positions of bridges follow the written chain, without caps; N, C: chain ends. Non-standard residues stand in square brackets, D forms with d. Residues, ends and D or L forms follow the SMILES beside them. Phe(3R-OH) = O=C([C@@H](N[*:1])[C@H](O[*:3])c1ccccc1)[*:2]; Asn(3S-OH) = NC(=O)[C@@H](O)[C@H](N)C(=O)O; Leu(3R-OH) = CC(C)[C@@H](O)[C@H](N)C(=O)O; aThr = C[C@H](O)[C@H](N)C(=O)O
# Tests used:
# Staphylococcus aureus [1] = experiment: Staphylococcus aureus acute mouse mastitis model; type: in vivo, lactating CD-1 mice
# Description: The efficacy of lysobactin (formulated in a hydrogel at pH 4.7) was tested in a Staphylococcus aureus acute mouse mastitis model established at the University of Sherbrooke, Canada (Brouillette et al, Vet. Microbiol. (2004) 4:253-262), that is hereby incorporated by reference. Both the abdominal mammary glands (L4 and R4) of lactating CD-1 mice were intramammarily infected with 100 CFU (colony forming units) of S. aureus. The mice were treated intramammarily with lysobactin four hours after infection. Each treatment group contained at least 3 mice (6 quarters), 14 hours later (18 hours after inoculation) mice were sacrificed, mammary glands were harvested and the CFU content evaluated by plating 10-fold serial dilutions of mammary gland homogenates. The CFU content was expressed as log10 count. The detection limit was 200 CFU/g of gland. Glands with less than 200 CFU/g were regarded as cleared. The efficacy of lysobactin and neomycin trisulfate, either alone or in combination, was tested in a Staphylococcus aureus acute mouse mastitis model established at the University of Sherbrooke, Canada (Brouillette et al, Vet. Microbiol. (2004) 4:253-262), as described in example 5. Samples were formulated in paraffin.
# [2] = tested on: Streptococcus uberis (ATCC 27958); experiment: acute mouse mastitis model with S. uberis (example 14); type: in vivo, lactating CD-1 mice; settings: paraffin formulation, 18 h after infection
# Description: Twenty-three lactating CD-1 mice were experimentally infected 10-15 days after birth of the offspring with the mastitis pathogen Streptococcus uberis (ATCC 27958) on the left and right fourth mammary gland. Four hours after infection the animals were treated intrammarily with the test items. The study comprised four treatment groups with four mice each and a control group with seven mice. The mice of the treatment groups received paraffin formulations of lysobactin at 15 μg/gland or neomycin trisulfate at 1600 μg/gland, or two combinations of both with lysobactin at 15 μg plus neomycin trisulfate at 800 μg or 1600 μg per gland. Eighteen hours after infection the mice were killed and the mammary glands were removed and bacterial CFU were evaluated microbiologically.
# Staphylococcus aureus [3] = experiment: dairy cow udder infection model with S. aureus (example 15); type: in vivo, lactating dairy cows; settings: for microbiological cure rate: miglyol based suspension, two times; for SCC recovery rate: counts below 200.000 cells per mL
# From the text: Fifteen healthy lactating dairy cows were experimentally infected with the mastitis pathogen Staphylococcus aureus on all four udder quarters.
# Additionally a fourth group of udder quarters received miglyol as negative control. Treatments were randomly assigned to 60 udder quarters in total. Only udder quarters that were bacteriologically positive for the challenge organism immediately prior to treatment (n=49) were eligible for assessment of microbiological and clinical cure. The diseased quarters were treated with these intramammary formulations two times with an interval of 24 hours in between. Udders were clinically examined and milk samples were taken before treatment and several times after that until three weeks after the second administration by study personnel blinded to treatment.
# Milk was inspected visually for deviation in its consistency and samples were evaluated for presence of the challenge organism and for somatic cell count to confirm the diagnosis mastitis. Diseased udder quarters were considered microbiologically cured when Staphylococcus aureus found in milk samples shortly before treatment could not be isolated from any milk sample taken within the time period between the third and the twenty-first day after the second treatment. Clinical cure was achieved when the local symptoms of mastitis had completely disappeared, and recovery of somatic cell counts (SCC) as parameter of udder inflammation was attained when all counts remained below 200.000 cells per mL of milk in the period mentioned above.
# E. coli P4:032 = experiment: in vitro kill kinetics of combinations in milk (synergy); type: cell-based; settings: after 8 h, 32 μg/ml neomycin alone
# Description: The flasks were incubated for 24-48 hours in a shaking water bath at 35+/−2° C., and viable bacterial counts in each flask were determined at several time-points by diluting and plating samples on agar plates.
# The kill kinetics of lysobactin and neomycin, either alone or in combination, against E. coli P4:032 in milk were determined for concentration ratio of lysobactin:neomycin of […] (256 μg/ml lysobactin and 32 μg/ml neomycin).
# [4] = tested on: Staphylococcus aureus ATCC 29740; experiment: in vitro kill kinetics of lysobactin alone in milk; type: cell-based; settings: lysobactin 4-64 μg/mL, at 24 h
# Description: (§1) In order to assess the ability of lysobactin to kill bacteria in milk, flasks containing different concentrations of lysobactin in store-bought full-fat milk were inoculated with 1-2×10^6 colony forming units/ml of a representative strain of either Staphyloccus aureus or Streptococcus uberis. The flasks were incubated for 24-48 hours in a shaking water bath at 35+/−2° C., and viable bacterial counts in each flask were determined at several time-points by diluting and plating samples on agar plates. A reduction of the number of viable bacteria in the initial inoculum by at least 99.9% is defined as bactericidal activity.
# (§2) The kill kinetics of lysobactin against Staphylococcus aureus ATCC 29740 and Streptococcus uberis ATCC 27958 in milk were determined for concentrations of lysobactin of 4, 8, 16, 32 and 64 μg/mL. Results are depicted in FIG. 1 (CFU: colony forming units). A cidality at 24 h and 48 h, respectively, can be postulated for S. aureus and S. uberis.
# [5] = tested on: Streptococcus uberis ATCC 27958; experiment: in vitro kill kinetics of lysobactin alone in milk; type: cell-based; settings: lysobactin 4-64 μg/mL, at 48 h
# Description: as §1, §2
# S. aureus = experiment: resistance development during serial passaging; type: cell-based, Staphylococcus aureus; settings: serial passaging at sub-MIC concentrations over 33 days
# Description: (§3) The appearance of MIC changes during constant exposure of bacteria to sub-MIC concentrations of lysobactin was assessed by serial passaging experiments. On the first day the MICs of S. aureus and S. uberis were assessed by microbroth dilution MIC methodology as described by the Clinical and Laboratory Standards Institute (CLSI). Each day for the following 33 consecutive days, bacteria from the well containing the highest concentrations allowing full growth were collected and used to inoculate new 96-well plates and to assess the MIC during constant exposure to lysobactin. The MIC obtained on each day was plotted over time. Rifampicin, which is known to result in quick changes of the MIC, was used as positive control.
# S. uberis = experiment: resistance development during serial passaging; type: cell-based, Streptococcus uberis; settings: serial passaging at sub-MIC concentrations over 33 days
# Description: as §3
# [6] = Day 3 after second treatment, neomycin trisulfate 400 mg
# [7] = Day 21 after second treatment, neomycin trisulfate 400 mg
# [8] = Day 3 after second treatment, lysobactin 50 mg
# [9] = Day 21 after second treatment, lysobactin 50 mg
compound,measurement,setting,value
"NC[C@@H]1O[C@H](O[C@@H]2[C@@H](CO)OC(O[C@@H]3[C@@H](O)[C@H](N)C[C@H](N)[C@H]3OC3O[C@H](CN)[C@@H](O)[C@H](O)[C@H]3N)[C@@H]2O)[C@H](N)[C@@H](O)[C@@H]1O (some centres unmarked) [neomycin trisulfate, reference compound]",reduction of median CFU content,"Staphylococcus aureus [1]; 1600 μg neomycin trisulfate intramammary, formulated in paraffin",~2.5 log10
same,reduction of mean CFU content,[2]; 1600 μg neomycin trisulfate per gland,~1.5 log10
same,local clinical cure rate,Staphylococcus aureus [3]; [6],67%
same,microbiological cure rate,Staphylococcus aureus [3]; [6],100%
same,SCC recovery rate,Staphylococcus aureus [3]; [6],17%
same,local clinical cure rate,Staphylococcus aureus [3]; [7],100%
same,microbiological cure rate,Staphylococcus aureus [3]; [7],42%
same,SCC recovery rate,Staphylococcus aureus [3]; [7],50%
neomycin,bacterial cell count,E. coli P4:032,below the detection limit
CC[C@H](C)[C@@H]1NC(=O)[C@@H](CCCNC(=N)N)NC(=O)[C@H](CC(C)C)NC(=O)[C@H]([C@H](O)C(C)C)NC(=O)[C@@H](NC(=O)[C@H](CC(C)C)NC(=O)[C@H](N)CC(C)C)[C@@H](c2ccccc2)OC(=O)[C@H](CO)NC(=O)[C@H]([C@H](O)C(N)=O)NC(=O)CNC(=O)[C@H]([C@H](C)O)NC1=O [lysobactin] (H-[dL]L[Phe(3R-OH)][Leu(3R-OH)]L[dR]I[aThr]G[Asn(3S-OH)]S; ester 3-C),cidality (reduction of viable bacteria by at least 99.9%),[4],cidality
same,cidality (reduction of viable bacteria by at least 99.9%),[5],cidality
same,MIC change during constant exposure,S. aureus,remain constant
same,MIC change during constant exposure,S. uberis,remain constant
same,reduction of median CFU content,"Staphylococcus aureus [1]; 50 μg lysobactin intramammary, formulated in paraffin",ca. 2.7 log10
same,reduction of median CFU content,"Staphylococcus aureus [1]; 50 μg lysobactin intramammary, hydrogel pH 4.7, 4 h after infection, glands 18 h after inoculation",ca. 4 log10
same,elimination of infection from glands,"Staphylococcus aureus [1]; 400 μg lysobactin intramammary, hydrogel pH 4.7, cleared = less than 200 CFU/g",eliminates the infection from all infected glands
same,reduction of mean CFU content,[2]; 15 μg lysobactin per gland,ca. 2.6 log10
same,local clinical cure rate,Staphylococcus aureus [3]; [8],71%
same,microbiological cure rate,Staphylococcus aureus [3]; [8],71%
same,SCC recovery rate,Staphylococcus aureus [3]; [8],35%
same,local clinical cure rate,Staphylococcus aureus [3]; [9],71%
same,microbiological cure rate,Staphylococcus aureus [3]; [9],14%
same,SCC recovery rate,Staphylococcus aureus [3]; [9],36%

# — patent US20220000969A1, “COMBINATIONS OF LYSOBACTIN AND AMINOGLYCOSIDES AGAINST DISEASES CAUSED BY GRAM-POSITIVE AND GRAM-NEGATIVE BACTERIA IN NON-HUMAN ANIMALS” (Bayer Animal Health GmbH, priority 2017, published 2022)
